Measured values published in patent US8728777B2, “High performance metabolic bacteria” (Deinove, priority 2009, dated 2014).

Key:
[1] = tested on: Deinococcus strain M13-1A; settings: ethanol added at T0, 45° C., aerobiosis, Complex medium Glucose, minimum concentration with total growth inhibition
Method: (§1) This method enables evaluation of the micro-organism sensitivity to ethanol. The test is carried out at 45° C. (Thermophilic strains). Ethanol bactericidy is determined with ethanol added at: • T0, • exponential phase, • stationary phase.
(§2) For ethanol bactericidy at T0, ethanol percentages between 0 to 10% are tested.
(§3) From a pre-culture in stationary phase in an enriched culture medium, for each ethanol content to be tested, 200 μl of Complex medium Glucose is seeded at 1% v/v.
(§4) Complex Medium Glucose contains: peptone 2 g/L, yeast extract 5 g/L and glucose 10 g/Lin osmosed water: solution sterilized by autoclaving (15 minutes at 120° C.). To this solution are added the following solutions: MOPS buffer solution (10×) pH7 [acid MOPS 400 mM, NH4Cl 200 mM, NaOH 100 mM, KOH 100 mM, CaCl2 5 μM, Na2SO4 2.76 mM, MgCl2 5.28 mM]; micronutrients (10000×) [[…] 300 mM, H3BO3 4 mM, CoCl2 0.3 mM, CuSO4 0.1 mM, MnCl2 2.5 mM, ZnSO4 0.1 mM]; FeCl3(100×) 2 mM in C6H5Na3O7 20 mM; K2HPO4 1 g/L: solutions sterilized by filtration (0.2 μm).
(§5) The test is performed in 96 wells microplates in aerobiosis. Ethanol evaporation is avoided using a sterile impermeable film.
(§6) The reading of the result is done by naked eye.

[2] = tested on: Deinococcus strain MC2-2A; settings: ethanol added at T0, 45° C., aerobiosis, Complex medium Glucose, minimum concentration with total growth inhibition
Method: as §1, §2, §3, §4, §5, §6

[3] = tested on: Deinococcus strain M13-1A; settings: ethanol added at exponential phase, 2 hours incubation, minimum concentration with loss of one log in relation to the control
Method: as §1
(§7) Ethanol Bactericidy at Exponential and Stationary Phases Test:
(§8) From a pre-culture in stationary phase in an enriched culture medium, for each ethanol content to be tested, 5 mL of Complex medium Glucose is seeded at 1% v/v.
as §4
(§9) A follow-up of growth is carried out using the control culture (no ethanol add neither at exponential phase nor at stationary phase). OD is read at 600 nm using a spectrophotometer (UV Light XS5, SECOMAM).
(§10) Once the exponential growth phase (optical density of 0.5 at 600 nm), or once the stationary phase (plateau), is reached, the solvent is added. The content tested is 0 to 20%. Then, cultures are incubated during 2 hours.
(§11) At the end of the incubation period and for each ethanol content tested, a count is taken to assess the influence of the ethanol on the strain.
(§12) Count: At the end of incubation, and for each concentration in solvent, 200 μL of culture are transferred onto another microplate and are diluted in cascade (dilutions at 1/10 over 9 wells). The dilution culture medium is an enriched medium.

[4] = tested on: Deinococcus strain MC2-2A; settings: 2 hours incubation, minimum concentration with loss of one log in relation to the control
Method: as §1, §7, §8, §4, §9, §10, §11, §12

## CCO [Ethanol, ethanol]
[1]
  Ethanol Bactericidy T0: 2.5%
[2]
  Ethanol Bactericidy T0: 5%
[3]
  Ethanol Bactericidy Exponential phase: 5%
[4]; ethanol added at exponential phase
  Ethanol Bactericidy Exponential phase: 15%
[4]; ethanol added at stationary phase
  Ethanol Bactericidy Stationary phase: 15%
